Experimental data as given in US12509423B2, “Compound, aldehyde dehydrogenase 2 activating agent, pharmaceutical composition, and therapeutic and/or prophylactic drug” (Alchemedicine, Inc., priority 2020, dated 2025).

Key:
[1] = Metabolic stability with human hepatic microsomes; type: in vitro ADME; settings: human hepatic microsomes 0.1 mg protein/mL, 0.1 μmol/L test compound, after 30 minutes, 37° C.
Method: The specific method is as follows.
• (1) Fifty microliter-portions were taken from 0.2 μmol/L test compound diluted with β-NADPH solution. • (2) Fifty microliters of 0.2 mg protein/mL human hepatic microsome solution was added to each (except for a sample with a reaction time of 0 minutes). • (3) Incubation was performed with shaking at 37° C. for 30 minutes (concentration in reaction sample: 0.1 μmol/L test compound, 0.1 mg protein/mL human hepatic microsome). • (4) After incubation, 400 μL of methanol was added to terminate the reaction. • (5) To the sample with a reaction time of 0 minutes, 50 μL of 0.2 mg protein/mL hepatic microsome solution was added. • (6) Each of the samples from (4) and (5) was left to stand at −20° C. for 30 minutes or longer, and then centrifuged at 4° C. and 3,000 rpm for approximately 10 minutes. • (7) The supernatant was subjected to measurement with LC/MS/MS, and, based on the peak area obtained for the unchanged form, the residual rate (%) of the unchanged form was calculated as that for the case with an incubation time of 0 minutes was assumed as 100%.

[2] = molecular target: hERG (human Ether-a-go-go Related Gene) channel (Homo sapiens, UniProt Q12809); assay: hERG channel inhibition effect (whole-cell patch clamp); type: cell-based; settings: 22 to 25° C.
hERG (human Ether-a-go-go Related Gene) channel, sequence (Q12809 whole entry): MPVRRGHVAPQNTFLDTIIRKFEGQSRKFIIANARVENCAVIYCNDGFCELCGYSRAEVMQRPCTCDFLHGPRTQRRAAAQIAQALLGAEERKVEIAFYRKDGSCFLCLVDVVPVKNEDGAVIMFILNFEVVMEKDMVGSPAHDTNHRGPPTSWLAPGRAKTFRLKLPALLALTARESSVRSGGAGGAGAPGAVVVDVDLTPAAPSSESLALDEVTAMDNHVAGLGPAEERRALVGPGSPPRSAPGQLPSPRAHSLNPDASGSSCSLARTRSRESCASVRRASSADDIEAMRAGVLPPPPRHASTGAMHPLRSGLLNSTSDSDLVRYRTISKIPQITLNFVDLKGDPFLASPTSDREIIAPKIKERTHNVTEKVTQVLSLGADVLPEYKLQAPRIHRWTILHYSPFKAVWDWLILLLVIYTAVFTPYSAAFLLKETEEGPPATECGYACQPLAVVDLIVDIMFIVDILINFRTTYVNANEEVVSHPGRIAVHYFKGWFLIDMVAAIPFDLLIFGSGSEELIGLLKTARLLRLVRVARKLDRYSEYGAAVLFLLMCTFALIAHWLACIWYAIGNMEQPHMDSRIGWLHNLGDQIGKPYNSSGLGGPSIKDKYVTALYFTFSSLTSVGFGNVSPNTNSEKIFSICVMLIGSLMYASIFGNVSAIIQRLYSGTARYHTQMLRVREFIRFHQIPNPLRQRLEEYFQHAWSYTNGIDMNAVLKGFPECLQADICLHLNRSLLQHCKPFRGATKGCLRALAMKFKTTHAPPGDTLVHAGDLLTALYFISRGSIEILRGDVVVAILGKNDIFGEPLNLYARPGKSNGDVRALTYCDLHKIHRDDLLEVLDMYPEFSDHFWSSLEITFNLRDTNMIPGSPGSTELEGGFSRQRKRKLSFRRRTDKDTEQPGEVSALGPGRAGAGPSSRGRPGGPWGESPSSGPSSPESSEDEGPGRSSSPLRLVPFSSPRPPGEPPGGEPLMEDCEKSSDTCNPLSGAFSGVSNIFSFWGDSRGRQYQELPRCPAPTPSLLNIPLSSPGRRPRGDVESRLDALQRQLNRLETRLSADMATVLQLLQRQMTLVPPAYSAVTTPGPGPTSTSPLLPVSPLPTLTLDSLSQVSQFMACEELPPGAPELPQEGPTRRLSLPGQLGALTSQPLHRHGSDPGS
Method: The hERG (human Ether-a-go-go Related Gene) channel inhibition effect of each test compound was examined with the following patch clamp method.
Under a fixed potential, an hERG current that passed through the whole cell membrane was recorded with the whole-cell patch clamp method.
To confirm the hERG current, the holding potential was set to −80 mV, and depolarizing pulses at −50 mV for 110 msec and at 20 mV for 4 sec and a subsequent repolarizing pulse at −50 mV for 2 sec were provided at a frequency of once per 15 seconds. After the stabilization of the hERG tail current obtained was confirmed, an application was initiated. The pulses were continuously provided also during the application.
The sampling frequency was set to 5 kHz, and Lowpass Filter was applied at 2 kHz. […]
hERG currents were measured by using an amplifier for patch clamping (Axopatch 200B, Molecular Devices, LLC), and electric signals obtained were recorded in a computer via recording/analysis software for patch clamping (pCLAMP 10, Molecular Devices, LLC).
The maximum tail current value was determined on the basis of the current value with the depolarizing pulse at −50 mV for 110 msec, and the change rate (suppression rate) 5 minutes after the initiation of application to the maximum tail current value before application of the test compound was calculated.

[3] = molecular target: T1, human recombinant ALDH2 enzyme (Homo sapiens, UniProt P05091); assay: ALDH2 activation effect (acetaldehyde oxidation rate, PicoProbe Aldehyde dehydrogenase Activity Assay Kit); type: biochemical
T1 construct: purchased BioVision Inc
T1 sequence (P05091 18-517): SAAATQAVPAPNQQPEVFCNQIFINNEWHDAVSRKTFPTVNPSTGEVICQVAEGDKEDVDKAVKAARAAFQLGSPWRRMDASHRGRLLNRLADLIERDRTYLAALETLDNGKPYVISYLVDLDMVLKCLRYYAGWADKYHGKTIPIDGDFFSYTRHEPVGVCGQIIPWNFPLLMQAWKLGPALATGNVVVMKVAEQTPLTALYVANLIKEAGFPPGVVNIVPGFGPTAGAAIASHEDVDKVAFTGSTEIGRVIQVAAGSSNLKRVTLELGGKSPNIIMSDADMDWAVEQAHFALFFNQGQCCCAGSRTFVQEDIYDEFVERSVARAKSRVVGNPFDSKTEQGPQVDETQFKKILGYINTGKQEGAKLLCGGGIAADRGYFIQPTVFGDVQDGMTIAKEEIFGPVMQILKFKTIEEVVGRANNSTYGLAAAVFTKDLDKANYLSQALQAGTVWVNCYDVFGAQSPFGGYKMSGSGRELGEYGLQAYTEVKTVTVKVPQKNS
Method: The activation effect of each test compound on the acetaldehyde oxidation rate of ALDH2 was measured with the following method. A test was conducted by using a commercially available PicoProbe™ Aldehyde dehydrogenase Activity Assay Kit (manufactured by BioVision Inc.) with reference to an instruction attached to the product under the following conditions. To each well of a 384-well plate, the following (1) to (3) were sequentially added with a pipette: • (1) 10 μL of solution obtained by dissolving and diluting a human recombinant ALDH2 enzyme (manufactured by BioVision Inc.) with ALDH assay Buffer to reach 3-μg/mL; • (2) 10 μL of 30 μM or 90 μM test compound solution (with 3% DMSO) prepared by using ALDH assay Buffer; and • (3) 10 μL of Reaction mix composed with ratio of 8.6 μL of ALDH assay Buffer, 0.6 μL of PicoProbe, 0.3 μL of Substrate Mix, and 1.5 μL of Acetaldehyde.
Before addition of (3), incubation was performed at room temperature for 5 minutes. After addition of (3), fluorescence intensity was measured at room temperature every 2.5 minutes over a period of 180 minutes by using an EnSight (manufactured by PerkinElmer Inc.). Wavelengths of 535 nm and 587 nm were used for fluorescence intensities of excitation and -emission, respectively.

[4] = Metabolic stability with mouse hepatic microsomes; type: in vitro ADME; settings: for Residual rate (%) of unchanged form: mouse hepatic microsomes, after 30 minutes, 37° C., NADPH
Method: Metabolic stability in mouse hepatic microsomes was evaluated with the following method.
• (1) Mouse hepatic microsomes: 20 mg/mL • (2) Test compound: 1.1 mM DMSO solution • (3) Potassium phosphate buffer solution: 66.7 mM (pH 7.4) • (4) NADPH solution: 10 mM in potassium phosphate buffer solution • (5) Quenching solution: 0.5% formic acid-acetonitrile solution with warfarin as internal standard substance 2. Method
Into a propylene tube, 971.5 μL of the potassium phosphate buffer solution and 27.5 μL of the mouse hepatic microsomes were put and suspended. Thereto, 1 μL of a test compound was added, and 180 μL was taken from this mixture and transferred into another tube. The mixture was preincubated at 37° C. for 5 minutes, and 20 μL of the NADPH solution (for the case with an incubation time of 30 minutes) or 20 μL of the potassium phosphate buffer solution (for the case with an incubation time of 0 minutes) was then added thereto. After incubation, 200 μL of the quenching solution was added to terminate the reaction. Subsequently, centrifugation was performed at 3220×g for 20 minutes, and the concentration of the unchanged form of the test compound in 200 μL of the supernatant was measured with LC-MS/MS. On the basis of the peak area obtained for the unchanged form, the residual rate (%) of the unchanged form was calculated as that for the case with an incubation time of 0 minutes was assumed as 100%.

[5] = concentration of test compound 10 μM
[6] = concentration of test compound 30 μM

| SMILES | Residual rate (%) of unchanged form [1] [%] | IC50 [2] [µM] | acetaldehyde oxidation rate (rate with no test compound assumed as 100%) [3, 5] [%] | acetaldehyde oxidation rate (rate with no test compound assumed as 100%) [3, 6] [%] | metabolic stability in mouse hepatic microsomes (in words) [4] | Residual rate (%) of unchanged form [4] [%] |
| --- | --- | --- | --- | --- | --- | --- |
| COCc1ccc(CNC(=O)c2cc(-c3ncccc3C(C)O)ccc2F)cc1F (racemic) [Example 2, Racemic 2-fluoro-N-(3-fluoro-4-(methoxymethyl)benzyl)-5-(3-(1-hydroxyethyl)pyridin-2-yl)benzamide] | 87 | > 30 | 127 | 166 | confirmed to have stability | 68 |
| COCc1ccc(CNC(=O)c2cc(-c3ncccc3C(C)O)ccc2F)cc1F (single isomer, unassigned) [Example 3, Chiral 2-fluoro-N-(3-fluoro-4-(methoxymethyl)benzyl)-5-(3-(1-hydroxyethyl)pyridin-2-yl)benzamide] |  |  | 137 | 176 |  | 64 |
| COCc1ccc(CNC(=O)c2cc(-c3ncccc3C(C)O)ccc2F)cc1F (single isomer, unassigned) [Example 4, Chiral 2-fluoro-N-(3-fluoro-4-(methoxymethyl)benzyl)-5-(3-(1-hydroxyethyl)pyridin-2-yl)benzamide] |  |  | 131 | 155 |  | 60 |
| O=C(NCc1ccc2c(c1)OCO2)c1c(Cl)cccc1Cl [Comparative Example 1, reference compound] |  |  | 149 | 176 |  | <1 |
| COc1ccc(CNC(=O)c2cc(-c3ncccc3CO)ccc2OCC2CC2)cc1F [Comparative Example 2, reference compound] |  |  |  |  |  | 6 |
| COCc1ccc(CNC(=O)c2c(Cl)cccc2Cl)cc1F [Comparative Example 3, reference compound] |  |  |  |  |  | 1 |
| COCc1ccc(CNC(=O)c2c(F)cccc2Br)cc1F [Comparative Example 4, reference compound] |  |  |  |  |  | <1 |
| COCc1ccc(CNC(=O)c2c(F)cccc2Cl)cc1F [Comparative Example 5, reference compound] |  |  |  |  |  | <1 |
| COCc1ccc(CNC(=O)c2c(F)cccc2F)cc1F [Comparative Example 6, reference compound] |  |  |  |  |  | 1 |
| CC(O)c1cccnc1-c1ccc(F)c(C(=O)NCc2ccc(COC(F)F)c(F)c2)c1 (stereo not drawn) [Example 5, N-(4-((Difluoromethoxy)methyl)-3-fluorobenzyl)-2-fluoro-5-(3-(1-hydroxyethyl)pyridin-2-yl)benzamide] | 72 |  | 124 | 146 | confirmed to have stability | 52 |
| COCc1ccc(CNC(=O)c2cc(-c3ncccc3COC)ccc2F)cc1F [Example 6, 2-Fluoro-N-(3-fluoro-4-(methoxymethyl)benzyl)-5-(3-(methoxymethyl)pyridin-2-yl)benzamide] | 75 |  | 139 | 161 | confirmed to have stability | 24 |
| COCc1ccc(CNC(=O)c2cc(-c3n[nH]cc3CO)ccc2Cl)cc1F [Example 7, 2-Chloro-N-(3-fluoro-4-(methoxymethyl)benzyl)-5-(4-(hydroxymethyl)-1H-pyrazol-3-yl)benzamide] |  |  | 157 | 170 |  | 74 |
